Consider six molecules from patent US8796230B2, “Ivermectin antagonizes ethanol inhibition in P2X4 receptors” (University of Southern California, priority 2010, dated 2014).

“Also recorded” adds a separate entry of the source. Like-named read-outs stand apart in the source and are kept apart here.

Experiment [1] addresses T1, rat P2X4R (Rattus norvegicus, UniProt P51577).
T1 construct: expressed in transfected cells; host or cells: Xenopus laevis oocytes injected with cRNA
T1 sequence (P51577 1-388): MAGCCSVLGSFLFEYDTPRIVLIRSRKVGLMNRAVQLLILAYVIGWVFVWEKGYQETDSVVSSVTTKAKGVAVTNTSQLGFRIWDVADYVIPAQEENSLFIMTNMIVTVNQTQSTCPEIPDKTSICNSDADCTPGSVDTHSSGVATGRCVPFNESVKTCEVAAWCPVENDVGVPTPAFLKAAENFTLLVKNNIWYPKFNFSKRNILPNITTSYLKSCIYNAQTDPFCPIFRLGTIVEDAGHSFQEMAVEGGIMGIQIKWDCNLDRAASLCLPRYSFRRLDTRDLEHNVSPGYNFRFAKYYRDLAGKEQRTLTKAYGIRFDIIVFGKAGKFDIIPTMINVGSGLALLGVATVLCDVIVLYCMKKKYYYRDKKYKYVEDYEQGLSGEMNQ
The experiment can be described thus: Two-electrode voltage-clamp of ATP EC10-induced currents in WT P2X4Rs expressed in Xenopus oocytes. The experiment is classed as cell-based. On the procedure: Isolation of Xenopus Laevis oocytes and cRNA injections. Xenopus oocytes were isolated and maintained as described previously^18,19. All procedures for the maintenance of Xenopus Laevis frogs and oocyte isolation were approved by The Institutional Animal Care and Use Committee of the University of Southern California. Stage V and VI oocytes were used for cRNA (0.01-5 ng) injections using Nanoject II Nanoliter injection system (Drummond Scientific, Broomall, Pa.) one day after isolation. Injected oocytes were stored at 16° C. in incubation medium containing (in mM), […], theophylline 0.6, pyruvic acid 2.5, with 1% horse serum and 0.05 mg/ml gentamycin. The oocytes were used in electrophysiological recordings for 3-10 days after cRNA injections.
Site-directed mutagenesis and cRNA synthesis. The cDNA of rat P2X4R (GenBank accession No. X87763) was sub-cloned into pcDNA3 vector (Invitrogen, Carlsbad, Calif.). Mutagenesis was performed to introduce single point mutations using QuickChange IIXL Site-Directed Mutagenesis kit (Stratagene, La Jolla, Calif.). The sequences of mutant constructs were verified using automated DNA sequencing (USC/Norris DNA Core Facility, University of Southern California).
The DNA of WT or mutant receptors was linearized and transcribed using the mMESSAGE mMACHINE kit (Ambion, Austin, Tex.) to result in cRNA, which was stored at −70° C. until injection.
Whole-cell voltage-clamp recordings. Two-electrode voltage-clamp recordings of oocytes were performed using a Warner Instruments Model OC-725C oocyte clamp amplifier (Hamden, Conn.) using procedures published earlier^5,6.
Experimental procedures. To induce currents and test the effects of alcohols and IVM in the present experiments, maximal (100 μM) or submaximal ATP concentrations (EC5-10 furthered referred to as EC10) were used. It has been previously shown that the use of EC10 can maximize the effects of ethanol and minimize receptor desensitization 18,19. The washout time between agonist applications was at least 5-10 min to allow complete re-sensitization of the receptors^18, 19.
Effects of the drugs were tested after a stable response to ATP EC10 was obtained. After a sufficient washout time (5-15 min), the cells were challenged with the same ATP EC10 to ensure an accurate response to the drugs and to asses any change in the baseline level.
IVM and alcohol applications.
Data analysis. Data are obtained from several batches of oocytes of at least 3 different frogs and are expressed as mean±SEM. Ethanol (hexanol) and/or IVM effects are presented as percentage change of peak currents evoked by ATP EC10 alone. Data were fitted to a concentration-response curve by using the following logistic equation: I=Imax*[drug]/([drug]+(EC50)), where I/Imax is the percentage of the maximum obtainable response, EC50 is the concentration producing a half-maximal response. GraphPAD Prism software (San Diego, Calif.) was used for data analysis and curve fitting. Statistical analysis was performed using unpaired t-test with significance set at P<0.05.

Experiment [2] deals with P2X2R. The experiment can be described thus: Effect of n-chain alcohols on P2X2R function (unpublished data). Type of experiment: cell-based. The text has this:
This possibility was investigated by testing the effects of IVM on another n-chain alcohol. Previous investigations report that short chain alcohols potentiate, whereas long chain alcohols inhibit, native nicotinic acetylcholine receptors (nAChRs) contained in neuromuscular or Torpedo preparations^26-28. This alcohol crossover occurred at approximately butanol in nAChRs expressed in Xenopus oocytes^29. […] It is believed that testing an alcohol that produced potentiation, rather than inhibition, would provide an alternative method of determining if the interaction between ethanol and IVM represented an additive effect.

In experiment [3] the test system is mutant P2X4Rs at position 336. As to conditions: cited from earlier work.
Experiment [4] has as its target T2, rat WT P2X4 receptor (Rattus norvegicus, UniProt P51577).
T2 construct: expressed in transfected cells; host or cells: Xenopus laevis oocytes injected with cRNA
T2 sequence (P51577 1-388): T1 sequence (P51577 1-388)
The experiment can be described thus: Comparison of Ivermectin analogues: two-electrode voltage-clamp of ATP EC10 currents in rat WT P2X4 receptor in Xenopus oocytes. The experiment is classed as cell-based. On the procedure:
Isolation of Xenopus Oocytes and cRNA Injections. Xenopus laevis frog (Nasco; WI) maintenance, oocyte isolation and cRNA injections were performed according to protocols as described previously (11,12,24).
Transcription of cDNA to cRNA. XL-Blue E. coli competent cells (Stratagene; CA) were transformed with rat WT P2X4 receptor cDNAs cloned into pcDNA3 vector (Invitrogen; CA). The isolated DNA was linearized and transcribed to result in capped cRNA, which was dissolved in nuclease-free water and stored at −70° C. until injection.
Whole-Cell Voltage Clamp Recording. […] Electrodes were prepared and used to impale the oocyte that was continuously perfused at the rate of 3-4 ml/min by extracellular bathing solution per procedures previously published (11,12,24). The peak currents recorded using a strip-chart recorder (Barnstead/Thermolyne, Iowa) were used in data analysis. All experiments were performed at room temperature (20-23° C.).
Experimental Procedures. Maximal ATP currents were induced by 15 s application of 100 μM ATP. Submaximal ATP concentrations (EC10) were applied for 20 s to generate currents. Ethanol and ABM/IVM were co-applied with ATP EC10. Washout time between drug applications was at least 5 min.
Data Analysis. Data are obtained from several batches of at least 3 different oocyte batches and are presented as percentage change of peak currents evoked by ATP EC10 alone±SEM. GraphPAD Prism software (San Diego, Calif.) was used for data analysis and curve fitting. Statistical analysis was performed using Student's unpaired t-test and significance set at P<0.05.
Background: Two-electrode voltage clamp is typically applied to oocytes expressing channels or transporters.

The subject of experiment [5] is male C57BL/6 mice. Conditions: mouse, in vivo.

As a reminder, the inhibition is how much of the control response was suppressed. In the case of `CCO` [ethanol], the inhibition at 25000 µM in experiment [1] (25 mM ethanol, delivered separately, ATP EC10, read-out: inhibition of ATP-gated currents in P2X4Rs) stood at 9 ± 2.3%. The “effect on ATP EC10-induced currents in P2X4Rs” value in experiment [1] (ethanol 25-200 mM co-applied with ATP, concentration-dependent and reversible) is “inhibited”. Further, the “effect on ATP-induced currents in P2X4R” value in experiment [1] (ethanol (C2) 200 mM) is reported as “inhibited”. The “effect on P2X2R function” value in experiment [2] is “inhibit”. The “sensitivity of the receptor to ethanol” value in experiment [3] (Ala, Val at position 336) is recorded as “reduced”; in experiment [3] (Arg or Glu at position 336), “insensitive”.

Regarding `CCCCCCO` [hexanol], the “effect on ATP-induced currents in P2X4R” value in experiment [1] (hexanol (C6) 10 mM) is given as “significantly potentiated; also recorded: significant potentiation”.

Consider `CCCO` [propanol], for which, in experiment [2], the “effect on P2X2R function” value was “inhibit”.

Abamectin [ABM]: the “antagonism of the inhibitory effects of ethanol” value was “antagonizes” in experiment [4] (ABM 0.5 μM, 25 and 50 mM ethanol); “able to antagonize” in experiment [4] (ABM 1.0 μM, all ethanol concentrations tested). Besides, in experiment [4] (higher concentrations (≧3 μM)), the “potency in modulating P2X4R activity relative to IVM (more potent)” value is 3-10 fold. For the same molecule, the “potentiation of P2X4R activity compared with IVM” value in experiment [4] (lower concentrations (0.5 and 1.0 μM)) is given as “to the same degree as IVM”.

For the molecule Selamectin, in experiment [4], the “potency in modulating P2X4R activity relative to IVM (lower potency)” value is 3-5 fold. Moreover, the “antagonism of the inhibitory effects of ethanol” value in experiment [4] (SEL at 3 and 10 mM, 50 mM ethanol, co-application) is reported as “antagonistic effect”. Also, in experiment [4] (co-application and pre-incubation (FIGS. 10C and 10D)), the “potentiation of ATP-induced currents, concentration dependence” value is on record as “small concentration-independent potentiation”. Further, in experiment [4] (only at 10 μM SEL during co-application), the “potentiation of P2X4Rs” value is given as “Significant potentiation”. For the same molecule, in experiment [4] (pre-incubation), the “potentiation with the pre-incubation protocol versus co-application” value is “higher potentiation”. The “ethanol intake in mice” value in experiment [5] is reported as “no effect”.

Take butanol: the “effect on ATP-induced currents in P2X4R” value is reported as “minimal effect” in experiment [1] (butanol (C4) 50 mM) and “minimal effects” in experiment [1] (butanol (C4) 50 mM, listed as Butanol). The “effect on P2X2R function” value in experiment [2] is “potentiates”.
